Literature values, collected in patent publication US6106863A, “Sustained-release metal valproate tablets” (priority 1996, dated 2000).

Experiments:
[1] = in vivo

Compound: CCCC(CCC)C(=O)[O-].[Na+] [Sodium valproate]
- water solubility (in words): water-soluble
- biological half-life (in words) [1]: short biological half-life
- effective blood concentration [1]: 50 to 100 µg/mL
